# Measurements: US12502434B2, “Compound comprising EZH2 inhibitor and E3 ligase binder and pharmaceutical composition for preventing or treating EZH2-associated disease comprising same as active ingredient” (DAEGU-GYEONGBUK MEDICAL INNOVATION FOUNDATION, priority 2019, dated 2025)
# Where two headings read alike, the source gives them in different places.
# Biological target: T1, EZH2 protein in LS174T cells (Homo sapiens, UniProt Q15910)
# T1 construct: endogenous in cells; host or cells: LS174T
# Assay: Proteolytic effect in colorectal cancer cells (Western blotting)
# Assay type: cell-based
# Protocol: After 72 hours of the treatment, the cells were collected and lysed using RIPA buffer (50 mM Tris, pH 7.5, 150 mM NaCl, 1% Triton X-100, 0.1% SDS, […], 0.5% deoxycholate, and protease inhibitor cocktail), followed by sonication (30 sec on/30 sec off, 5 cycles) to prepare a cell lysate.
# [1] = EZH2 protein, LS174T cells, 1 μM, 72 hours
# [2] = EZH2 protein, LS174T cells, 1 uM, 72 hours, Western blotting
# T1 sequence (Q15910 whole entry): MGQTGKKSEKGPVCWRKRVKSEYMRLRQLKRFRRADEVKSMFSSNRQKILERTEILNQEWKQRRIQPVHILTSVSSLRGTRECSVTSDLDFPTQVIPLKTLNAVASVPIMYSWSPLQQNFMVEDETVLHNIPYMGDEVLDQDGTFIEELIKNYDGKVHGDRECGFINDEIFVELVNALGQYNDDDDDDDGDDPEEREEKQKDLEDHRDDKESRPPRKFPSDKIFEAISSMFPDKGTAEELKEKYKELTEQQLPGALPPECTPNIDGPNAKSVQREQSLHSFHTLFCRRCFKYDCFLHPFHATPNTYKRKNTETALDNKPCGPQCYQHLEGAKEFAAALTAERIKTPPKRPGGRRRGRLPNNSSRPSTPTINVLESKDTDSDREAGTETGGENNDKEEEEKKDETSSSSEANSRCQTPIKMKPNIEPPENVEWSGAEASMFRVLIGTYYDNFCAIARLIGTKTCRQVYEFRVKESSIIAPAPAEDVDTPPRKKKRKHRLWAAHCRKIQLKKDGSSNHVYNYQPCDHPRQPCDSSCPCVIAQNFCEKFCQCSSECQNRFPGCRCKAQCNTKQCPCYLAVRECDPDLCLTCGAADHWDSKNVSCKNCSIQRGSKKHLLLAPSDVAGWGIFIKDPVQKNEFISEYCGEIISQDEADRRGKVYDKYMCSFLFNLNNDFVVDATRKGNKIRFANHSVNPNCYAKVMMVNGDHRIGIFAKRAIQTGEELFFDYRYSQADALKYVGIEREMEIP
# T1 sequence (O75530 whole entry partner): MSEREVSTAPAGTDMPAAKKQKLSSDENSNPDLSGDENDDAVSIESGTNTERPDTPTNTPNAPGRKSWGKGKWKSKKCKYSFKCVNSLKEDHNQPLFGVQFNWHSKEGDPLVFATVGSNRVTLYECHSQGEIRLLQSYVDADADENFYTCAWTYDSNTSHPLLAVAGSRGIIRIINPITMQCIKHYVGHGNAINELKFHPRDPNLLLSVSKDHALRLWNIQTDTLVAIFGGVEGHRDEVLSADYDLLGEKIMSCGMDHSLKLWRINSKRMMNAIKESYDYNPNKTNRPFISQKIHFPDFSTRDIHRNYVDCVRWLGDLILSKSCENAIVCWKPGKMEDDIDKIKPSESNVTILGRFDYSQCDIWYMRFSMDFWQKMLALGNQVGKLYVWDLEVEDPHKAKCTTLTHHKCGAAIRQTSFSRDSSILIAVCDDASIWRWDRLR
# T1 sequence (Q15022 whole entry partner): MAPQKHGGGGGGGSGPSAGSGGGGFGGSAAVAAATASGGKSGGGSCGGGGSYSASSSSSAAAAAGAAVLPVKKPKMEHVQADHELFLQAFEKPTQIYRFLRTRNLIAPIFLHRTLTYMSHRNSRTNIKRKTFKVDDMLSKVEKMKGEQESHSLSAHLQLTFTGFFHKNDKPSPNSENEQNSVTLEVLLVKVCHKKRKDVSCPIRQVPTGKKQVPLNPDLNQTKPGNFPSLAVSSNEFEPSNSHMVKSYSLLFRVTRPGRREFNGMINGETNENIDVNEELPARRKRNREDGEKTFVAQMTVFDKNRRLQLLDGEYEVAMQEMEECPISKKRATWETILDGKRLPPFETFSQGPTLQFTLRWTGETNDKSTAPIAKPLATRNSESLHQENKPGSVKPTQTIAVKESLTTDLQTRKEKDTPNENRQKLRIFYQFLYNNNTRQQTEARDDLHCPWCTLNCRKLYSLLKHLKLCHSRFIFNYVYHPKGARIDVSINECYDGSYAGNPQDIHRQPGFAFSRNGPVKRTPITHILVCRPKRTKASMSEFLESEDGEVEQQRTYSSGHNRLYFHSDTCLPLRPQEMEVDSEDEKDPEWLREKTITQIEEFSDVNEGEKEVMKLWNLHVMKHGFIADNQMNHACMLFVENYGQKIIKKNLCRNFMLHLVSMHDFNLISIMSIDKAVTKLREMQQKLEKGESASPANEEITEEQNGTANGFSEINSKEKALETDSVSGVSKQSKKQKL
SMILES,Grade (percent value of the protein degradation when treated with 1 μM) [1],"%, degradation at 1 uM [2] [%]","EZH2 proteolytic effect by Western blotting (figure, in words) (FIGS. 1 to 5)",effect of degrading EZH2 protein when treated to colorectal cancer cells (in words) (LS174T cells),"%, degradation at 1 uM [%]",Grade (percent value of the protein degradation when treated with 1 μM)
"CCN(c1cc(-c2ccc(CN3CCN(CC(=O)NCCOCCCNc4cccc5c4C(=O)N(C4CCC(=O)NC4=O)C5=O)CC3)cc2)cc(C(=O)NCc2c(C)cc(C)[nH]c2=O)c1C)C1CCOCC1 (stereo not shown) [Example 16, N-((4,6-dimethyl-2-oxo-1,2-dihydropyridine-3-yl)methyl)-4′-((4-(2-((2-(3-((2-(2,6-dioxopiperidine-3-yl)-1,3-dioxoisoindoline-4-yl)amino)propoxy)ethyl)amino)-2-oxoethyl)piperazine-1-yl)methyl)-5-(ethyl(tetrahydro-2H-pyran-4-yl)amino)-4-methyl-[1,1′-biphenyl]-3-carboxamide]",–,–,–,–,5.51,D (key: A: >75%; B: 50-75%; C: 25-50%; D: <25%)
"CCN(c1cc(-c2ccc(CN3CCN(CC(=O)NCCCOCCOc4cccc5c4C(=O)N(C4CCC(=O)NC4=O)C5=O)CC3)cc2)cc(C(=O)NCc2c(C)cc(C)[nH]c2=O)c1C)C1CCOCC1 (stereo not shown) [Example 17, N-((4,6-dimethyl-2-oxo-1,2-dihydropyridine-3-yl)methyl)-4′-((4-(2-((3-(2-((2-(2,6-dioxopiperidine-3-yl)-1,3-dioxoisoindoline-4-yl)oxy)ethoxy)propyl)amino)-2-oxoethyl)piperazine-1-yl)methyl)-5-(ethyl(tetrahydro-2H-pyran-4-yl)amino)-4-methyl-[1,1′-biphenyl]-3-carboxamide]",–,–,–,–,3.25,D (key: A: >75%; B: 50-75%; C: 25-50%; D: <25%)
"CCN(c1cc(-c2ccc(CN3CCN(CC(=O)NCCOCCCOc4cccc5c4C(=O)N(C4CCC(=O)NC4=O)C5=O)CC3)cc2)cc(C(=O)NCc2c(C)cc(C)[nH]c2=O)c1C)C1CCOCC1 (stereo not shown) [Example 18, N-((4,6-dimethyl-2-oxo-1,2-dihydropyridine-3-yl)methyl)-4′-((4-(2-((2-(3-((2-(2,6-dioxopiperidine-3-yl)-1,3-dioxoisoindoline-4-yl)oxy)propoxy)ethyl)amino)-2-oxoethyl)piperazine-1-yl)methyl)-5-(ethyl(tetrahydro-2H-pyran-4-yl)amino)-4-methyl-[1,1′-biphenyl]-3-carboxamide]",D (<25%),16.74,–,–,–,–
"CCN(c1cc(-c2ccc(CN3CCN(CCOCCCCCCNc4cccc5c4C(=O)N(C4CCC(=O)NC4=O)C5=O)CC3)cc2)cc(C(=O)NCc2c(C)cc(C)[nH]c2=O)c1C)C1CCOCC1 (stereo not shown) [Example 19, N-((4,6-dimethyl-2-oxo-1,2-dihydropyridine-3-yl)methyl)-4′-((4-(2-((6-((2-(2,6-dioxopiperidine-3-yl)-1,3-dioxoisoindoline-4-yl)amino)hexyl)oxy)ethyl)piperazine-1-yl)methyl)-5-(ethyl(tetrahydro-2H-pyran-4-yl)amino)-4-methyl-[1,1′-biphenyl]-3-carboxamide]",D (<25%),9.07,–,–,–,–
"CCN(c1cc(-c2ccc(CN3CCN(CC(=O)NCCCCCCNc4cccc5c4CN(C4CCC(=O)NC4=O)C5=O)CC3)cc2)cc(C(=O)NCc2c(C)cc(C)[nH]c2=O)c1C)C1CCOCC1 (stereo not shown) [Example 20, N-((4,6-dimethyl-2-oxo-1,2-dihydropyridine-3-yl)methyl)-4′-((4-(2-((6-((2-(2,6-dioxopiperidine-3-yl)-1-oxoisoindoline-4-yl)amino)hexyl)amino)-2-oxoethyl)piperazine-1-yl)methyl)-5-(ethyl(tetrahydro-2H-pyran-4-yl)amino)-4-methyl[1,1′-biphenyl]-3-carboxamide]",–,–,–,–,58.73,B (key: A: >75%; B: 50-75%; C: 25-50%; D: <25%)
"CCN(c1cc(-c2ccc(CN3CCN(CCNCCCCCCNc4cccc5c4C(=O)N(C4CCC(=O)NC4=O)C5=O)CC3)cc2)cc(C(=O)NCc2c(C)cc(C)[nH]c2=O)c1C)C1CCOCC1 (stereo not shown) [Example 21, N-((4,6-dimethyl-2-oxo-1,2-dihydropyridine-3-yl)methyl)-4′-((4-(2-((6-((2-(2,6-dioxopiperidine-3-yl)-1,3-dioxoisoindoline-4-yl)amino)hexyl)amino)ethyl)piperazine-1-yl)methyl)-5-(ethyl(tetrahydro-2H-pyran-4-yl)amino)-4-methyl-[1,1′-biphenyl]-3-carboxamide]",A (>75%),83.09,confirming the EZH2 proteolytic effect,excellent effects,–,–
"CCN(c1cc(-c2ccc(CN3CCN(CC(=O)NCCCCCOCCCOCC(=O)Nc4cccc5c4CN(C4CCC(=O)NC4=O)C5=O)CC3)cc2)cc(C(=O)NCc2c(C)cc(C)[nH]c2=O)c1C)C1CCOCC1 (stereo not shown) [Example 27, N-((4,6-dimethyl-2-oxo-1,2-dihydropyridine-3-yl)methyl)-4′-((4-(2-((5-(3-(2-((2-(2,6-dioxopiperidine-3-yl)-1-oxoisoindoline-4-yl)amino)-2-oxoethoxy)propoxy)pentyl)amino)-2-oxoethyl)piperazine-1-yl)methyl)-5-(ethyl(tetrahydro-2H-pyran-4-yl)amino)-4-methyl-[1,1′-biphenyl]-3-carboxamide]",D (<25%),2.27,–,–,–,–
"CCN(c1cc(-c2ccc(CN3CCN(CC(=O)NCCN4CCN(CCNc5cccc6c5C(=O)N(C5CCC(=O)NC5=O)C6=O)CC4)CC3)cc2)cc(C(=O)NCc2c(C)cc(C)[nH]c2=O)c1C)C1CCOCC1 (stereo not shown) [Example 29, N-((4,6-dimethyl-2-oxo-1,2-dihydropyridine-3-yl)methyl)-4′-((4-(2-((2-(4-(2-((2-(2,6-dioxopiperidine-3-yl)-1,3-dioxoisoindoline-4-yl)amino)ethyl)piperazine-1-yl)ethyl)amino)-2-oxoethyl)piperazine-1-yl)methyl)-5-(ethyl(tetrahydro-2H-pyran-4-yl)amino)-4-methyl-[1,1′-biphenyl]-3-carboxamide]",D (<25%),0,–,–,–,–

# Now from value to compound, other results behind:
Grade (percent value of the protein degradation when treated with 1 μM) [1],"%, degradation at 1 uM [2] [%]","EZH2 proteolytic effect by Western blotting (figure, in words) (FIGS. 1 to 5)",effect of degrading EZH2 protein when treated to colorectal cancer cells (in words) (LS174T cells),SMILES,"%, degradation at 1 uM [%]",Grade (percent value of the protein degradation when treated with 1 μM)
D (<25%),0,–,–,"CCN(c1cc(-c2ccc(CN3CCN(CC(=O)NCCCCCCNc4cccc5c4C(=O)N(C4CCC(=O)NC4=O)C5)CC3)cc2)cc(C(=O)NCc2c(C)cc(C)[nH]c2=O)c1C)C1CCOCC1 (stereo not shown) [Example 22, N-((4,6-dimethyl-2-oxo-1,2-dihydropyridine-3-yl)methyl)-4′-((4-(2-((6-((2-(2,6-dioxopiperidine-3-yl)-3-oxoisoindoline-4-yl)amino)hexyl)amino)-2-oxoethyl)piperazine-1-yl)methyl)-5-(ethyl(tetrahydro-2H-pyran-4-yl)amino)-4-methyl-[1,1′-biphenyl]-3-carboxamide]",–,–
D (<25%),1.52,–,–,"CCN(c1cc(-c2ccc(CN3CCN(Cc4cn(CCCNc5cccc6c5C(=O)N(C5CCC(=O)NC5=O)C6=O)nn4)CC3)cc2)cc(C(=O)NCc2c(C)cc(C)[nH]c2=O)c1C)C1CCOCC1 (stereo not shown) [Example 23, N-((4,6-dimethyl-2-oxo-1,2-dihydropyridine-3-yl)methyl)-4′-((4-((1-(3-((2-(2,6-dioxopiperidine-3-yl)-1,3-dioxoisoindoline-4-yl)amino)propyl)-1H-1,2,3-triazole-4-yl)methyl)piperazine-1-yl)methyl)-5-(ethyl(tetrahydro-2H-pyran-4-yl)amino)-4-methyl-[1,1′-biphenyl]-3-carboxamide]",–,–
D (<25%),0,–,–,"CCN(c1cc(-c2ccc(CN3CCN(Cc4cn(CCOCCNc5cccc6c5C(=O)N(C5CCC(=O)NC5=O)C6=O)nn4)CC3)cc2)cc(C(=O)NCc2c(C)cc(C)[nH]c2=O)c1C)C1CCOCC1 (stereo not shown) [Example 24, N-((4,6-dimethyl-2-oxo-1,2-dihydropyridine-3-yl)methyl)-4′-((4-((1-(2-(2-((2-(2,6-dioxopiperidine-3-yl)-1,3-dioxoisoindoline-4-yl)amino)ethoxy)ethyl)-1H-1,2,3-triazole-4-yl)methyl)piperazine-1-yl)methyl)-5-(ethyl(tetrahydro-2H-pyran-4-yl)amino)-4-methyl-[1,1′-biphenyl]-3-carboxamide]",–,–
D (<25%),7.41,–,–,"CCN(c1cc(-c2ccc(CN3CCN(C(=O)c4cn(CCCNc5cccc6c5C(=O)N(C5CCC(=O)NC5=O)C6=O)nn4)CC3)cc2)cc(C(=O)NCc2c(C)cc(C)[nH]c2=O)c1C)C1CCOCC1 (stereo not shown) [Example 25, N-((4,6-dimethyl-2-oxo-1,2-dihydropyridine-3-yl)methyl)-4′-((4-(1-(3-((2-(2,6-dioxopiperidine-3-yl)-1,3-dioxoisoindoline-4-yl)amino)propyl)-1H-1,2,3-triazole-4-carbonyl)piperazine-1-yl)methyl)-5-(ethyl(tetrahydro-2H-pyran-4-yl)amino)-4-methyl[1,1′-biphenyl]-3-carboxamide]",–,–
D (<25%),0,–,–,"CCN(c1cc(-c2ccc(CN3CCN(CC(=O)NCCCCCOCCCOCC(=O)Nc4cccc5c4C(=O)N(C4CCC(=O)NC4=O)C5=O)CC3)cc2)cc(C(=O)NCc2c(C)cc(C)[nH]c2=O)c1C)C1CCOCC1 (stereo not shown) [Example 28, N-((4,6-dimethyl-2-oxo-1,2-dihydropyridine-3-yl)methyl)-4′-((4-(2-((5-(3-(2-((2-(2,6-dioxopiperidine-3-yl)-1,3-dioxoisoindoline-4-yl)amino)-2-oxoethoxy)propoxy)pentyl)amino)-2-oxoethyl)piperazine-1-yl)methyl)-5-(ethyl(tetrahydro-2H-pyran-4-yl)amino)-4-methyl-[1,1′-biphenyl]-3-carboxamide]",–,–
